# Columns and labels:
# [1] = tested on: MCF-7 cells; experiment: Breast cancer cell viability assay (CellTiter-Glo, 5 days); type: cell-based; conditions: 5 days' compound exposure; for IC50: Homo sapiens, MCF7, 120 h
# In short: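 Eleven-point semilog compound series, final 0.3-0.000003 μM, added to overnight-adhered MCF-7 cells (320/well; RPMI, 10% FBS, 20 mM HEPES) for 5 days. Viability read by CellTiter-Glo luminescence, background from medium without cells subtracted, expressed relative to untreated cells.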
# [2] = target: T1, ER-α in MCF-7 cells (Homo sapiens, UniProt P03372); experiment: Breast cancer cell ER-α in cell western assay (SP1); type: cell-based; parameters: endogenous in cells; host or cells: MCF-7; conditions: 4 or 24 hr post compound addition; for Emax: MCF7, SP1 antibody, read-out: ER-α In Cell Western Assay (SP1) Max Response; for DC50: SP1 antibody, read-out: ER-α In Cell Western Assay (SP1) IC50
# T1 sequence (P03372 1-595): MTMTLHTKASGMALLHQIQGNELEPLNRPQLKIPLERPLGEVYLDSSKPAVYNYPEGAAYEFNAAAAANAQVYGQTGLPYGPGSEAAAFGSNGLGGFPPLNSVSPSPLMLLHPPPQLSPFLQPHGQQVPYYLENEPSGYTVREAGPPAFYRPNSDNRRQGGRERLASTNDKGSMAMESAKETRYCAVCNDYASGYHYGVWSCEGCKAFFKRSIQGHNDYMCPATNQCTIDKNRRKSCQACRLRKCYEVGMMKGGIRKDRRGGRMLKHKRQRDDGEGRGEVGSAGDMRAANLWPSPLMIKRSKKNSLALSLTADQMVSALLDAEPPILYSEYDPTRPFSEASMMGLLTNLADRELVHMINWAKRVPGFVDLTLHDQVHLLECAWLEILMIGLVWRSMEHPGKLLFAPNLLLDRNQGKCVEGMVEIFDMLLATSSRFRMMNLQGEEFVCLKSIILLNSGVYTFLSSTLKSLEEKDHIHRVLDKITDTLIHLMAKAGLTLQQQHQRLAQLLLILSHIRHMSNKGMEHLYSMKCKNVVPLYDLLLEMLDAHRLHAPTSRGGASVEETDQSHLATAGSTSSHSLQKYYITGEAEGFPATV
# In short: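 ER-α protein levels were measured in MCF-7 cells after 4 or 24 hr compound exposure (final 0.3–0.000003 μM) in RPMI containing 10% charcoal-stripped FBS.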
Compound,IC50 [1] [nM],Emax [2] [%],DC50 [2] [nM],MCF7 Viability Assay Max Response [1]
"CC/C(=C(/c1ccc(/C=C/C(=O)O)cc1)c1ccc2[nH]ncc2c1)c1cccc(CC(=O)O)c1 [Compound 327, (E)-3-(4-((E)-2-(3-(Carboxymethyl)phenyl)-1-(1H-indazol-5-yl)but-1-en-1-yl)phenyl)acrylic acid]",> 100,< 40,> 100,+ (+ = a single % value < 40%)
"CC/C(=C(/c1ccc(/C=C/C(=O)O)cc1)c1ccc2[nH]ncc2c1)c1ccc(CC(=O)O)cc1 [Compound 328, (E)-3-(4-((E)-2-(4-(Carboxymethyl)phenyl)-1-(1H-indazol-5-yl)but-1-en-1-yl)phenyl)acrylic acid]",> 100,< 40,> 100,+ (+ = a single % value < 40%)
"CC/C(=C(/c1ccc(OC2(C(=O)O)CC2)cc1)c1ccc2[nH]ncc2c1)c1ccc(F)cc1Cl [Compound 332, (E)-1-(4-(2-(2-Chloro-4-fluorophenyl)-1-(1H-indazol-5-yl)but-1-en-1-yl)phenoxy)cyclopropanecarboxylic acid]",> 100,≥ 40,> 100,++ (++ = a single % value ≧ 40%)
"CC/C(=C(/c1ccc(-c2cc(O)on2)cc1)c1ccc2[nH]ncc2c1)c1ccc(F)cc1Cl [Compound 334, (E)-3-(4-(2-(2-Chloro-4-fluorophenyl)-1-(1H-indazol-5-yl)but-1-en-1-yl)phenyl)isoxazol-5-ol]",> 100,≥ 40,≤ 100,+ (+ = a single % value < 40%)
"CC/C(=C(/c1ccc(CCC(=O)O)cc1)c1ccc2[nH]ncc2c1)c1ccccc1 [Compound 338, (E)-3-(4-(1-(1H-Indazol-5-yl)-2-phenylbut-1-en-1-yl)phenyl)propanoic acid]",> 100,≥ 40,≤ 100,++ (++ = a single % value ≧ 40%)
"CC/C(=C(/c1ccc(/C=C/C(=O)O)cc1)c1ccc2[nH]ncc2c1F)c1cccc(OC2CCN(C)CC2)c1 [Compound 343, (E)-3-(4-((E)-1-(4-Fluoro-1H-indazol-5-yl)-2-(3-((1-methylpiperidin-4-yl)oxy)phenyl)but-1-en-1-yl)phenyl)acrylic acid]",> 100,≥ 40,> 100,++ (++ = a single % value ≧ 40%)
"CC/C(=C(/c1ccc(/C=C/C(=O)O)cc1)c1ccc2[nH]ncc2c1F)c1cccc(OC2CCOCC2)c1 [Compound 344, (E)-3-(4-((E)-1-(4-Fluoro-1H-indazol-5-yl)-2-(3-((tetrahydro-2H-pyran-4-yl)oxy)phenyl)but-1-en-1-yl)phenyl)acrylic acid]",> 100,≥ 40,≤ 100,++ (++ = a single % value ≧ 40%)
"CC/C(=C(/c1ccc(/C=C/C(=O)O)cc1)c1ccc2[nH]ncc2c1F)c1cccc(OC2CCCCC2)c1 [Compound 345, (E)-3-(4-((E)-2-(3-(Cyclohexyloxy)phenyl)-1-(4-fluoro-1H-indazol-5-yl)but-1-en-1-yl)phenyl)acrylic acid]",≤ 100,≥ 40,≤ 100,++ (++ = a single % value ≧ 40%)
"CC/C(=C(/c1ccc(/C=C/C(=O)O)cc1)c1ccc2[nH]ncc2c1)c1cccc(OCC(=O)O)c1 [Compound 347, (E)-3-(4-((E)-2-(3-(Carboxymethoxy)phenyl)-1-(1H-indazol-5-yl)but-1-en-1-yl)phenyl)acrylic acid]",> 100,< 40,> 100,+ (+ = a single % value < 40%)
"CC/C(=C(/c1ccc(/C=C/C(=O)O)cc1)c1ccc2[nH]ncc2c1)c1ccc(OCC(=O)O)cc1 [Compound 348, (E)-3-(4-((E)-2-(4-(Carboxymethoxy)phenyl)-1-(1H-indazol-5-yl)but-1-en-1-yl)phenyl)acrylic acid]",> 100,< 40,> 100,+ (+ = a single % value < 40%)

# Second part, led by results:
IC50 [1] [nM],Emax [2] [%],DC50 [2] [nM],Compound,MCF7 Viability Assay Max Response [1]
≤ 100,≥ 40,≤ 100,"CC/C(=C(/c1ccc(/C=C/C(=O)O)cc1)c1ccc2[nH]ncc2c1)c1ccc(Oc2ccccc2)cc1C [Compound 319, (E)-3-(4-((E)-1-(1H-Indazol-5-yl)-2-(2-methyl-4-phenoxyphenyl)but-1-en-1-yl)phenyl)acrylic acid]",++ (++ = a single % value ≧ 40%)
≤ 100,≥ 40,≤ 100,"CC/C(=C(/c1ccc(/C=C/C(=O)O)cc1)c1ccc2[nH]ncc2c1)c1ccc(Oc2ccccc2)c(C)c1 [Compound 320, (E)-3-(4-((E)-1-(1H-Indazol-5-yl)-2-(3-methyl-4-phenoxyphenyl)but-1-en-1-yl)phenyl)acrylic acid]",++ (++ = a single % value ≧ 40%)
≤ 100,≥ 40,≤ 100,"CC/C(=C(/c1ccc(/C=C/C(=O)O)cc1)c1ccc2[nH]ncc2c1)c1cccc(Oc2cccc(S(C)(=O)=O)c2)c1 [Compound 321, (E)-3-(4-((E)-1-(1H-Indazol-5-yl)-2-(3-(3-(methylsulfonyl)phenoxy)phenyl)but-1-en-1-yl)phenyl)acrylic acid]",++ (++ = a single % value ≧ 40%)
≤ 100,≥ 40,≤ 100,"CC/C(=C(/c1ccc(OC[C@H](C)N2CC[C@@H](C)C2)cc1)c1ccc2[nH]ncc2c1)c1ccccc1 [Compound 329, 5-((E)-1-(4-((S)-2-((R)-3-Methylpyrrolidin-1-yl)propoxy)phenyl)-2-phenylbut-1-en-1-yl)-1H-indazole]",++ (++ = a single % value ≧ 40%)
≤ 100,≥ 40,≤ 100,"CC/C(=C(/c1ccc(OC[C@H](C)N2CC[C@@H](C)C2)cc1)c1ccc2[nH]ncc2c1)c1ccccc1Cl [Compound 330, 5-((E)-2-(2-Chlorophenyl)-1-(4-((S)-2-((R)-3-methylpyrrolidin-1-yl)propoxy)phenyl)but-1-en-1-yl)-1H-indazole]",++ (++ = a single % value ≧ 40%)
≤ 100,≥ 40,≤ 100,"CC/C(=C(/c1ccc(OC[C@H](C)N2CC[C@@H](C)C2)cc1)c1ccc2[nH]ncc2c1)c1ccncc1Cl [Compound 331, 5-((E)-2-(3-Chloropyridin-4-yl)-1-(4-((S)-2-((R)-3-methylpyrrolidin-1-yl)propoxy)phenyl)but-1-en-1-yl)-1H-indazole]",++ (++ = a single % value ≧ 40%)
≤ 100,≥ 40,≤ 100,"CC/C(=C(/c1ccc(-c2cc(O)no2)cc1)c1ccc2[nH]ncc2c1)c1ccc(F)cc1Cl [Compound 333, (E)-5-(4-(2-(2-Chloro-4-fluorophenyl)-1-(1H-indazol-5-yl)but-1-en-1-yl)phenyl)isoxazol-3-ol]",++ (++ = a single % value ≧ 40%)
≤ 100,≥ 40,≤ 100,"CC/C(=C(/c1ccc(/C=C/C(=O)O)cc1)c1ccc2[nH]ncc2c1)c1ccc(OCCOC)cc1 [Compound 339, (E)-3-(4-((E)-1-(1H-Indazol-5-yl)-2-(4-(2-methoxyethoxy)phenyl)but-1-en-1-yl)phenyl)acrylic acid]",++ (++ = a single % value ≧ 40%)
≤ 100,≥ 40,≤ 100,"CC/C(=C(/c1ccc(/C=C/C(=O)O)cc1)c1ccc2[nH]ncc2c1)c1ccc(OCCCOC)cc1 [Compound 340, (E)-3-(4-((E)-1-(1H-Indazol-5-yl)-2-(4-(3-methoxypropoxy)phenyl)but-1-en-1-yl)phenyl)acrylic acid]",++ (++ = a single % value ≧ 40%)
≤ 100,≥ 40,≤ 100,"CC/C(=C(/c1ccc(/C=C/C(=O)O)cc1)c1ccc2[nH]ncc2c1)c1cccc(OCCOC)c1 [Compound 341, (E)-3-(4-((E)-1-(1H-Indazol-5-yl)-2-(3-(2-methoxyethoxy)phenyl)but-1-en-1-yl)phenyl)acrylic acid]",++ (++ = a single % value ≧ 40%)
≤ 100,≥ 40,≤ 100,"CC/C(=C(/c1ccc(/C=C/C(=O)O)cc1)c1ccc2[nH]ncc2c1)c1cccc(OCCCOC)c1 [Compound 342, (E)-3-(4-((E)-1-(1H-Indazol-5-yl)-2-(3-(3-methoxypropoxy)phenyl)but-1-en-1-yl)phenyl)acrylic acid]",++ (++ = a single % value ≧ 40%)

# From US9399646B2 (Genentech, Inc., priority 2010, dated 2016)
